The source of these data is patent US9212202B2, “Methods of peptide modification” (Lytix Biopharma AS, priority 2007, dated 2015).

Series [1] addresses trypsin (Bos taurus, UniProt P00760). In words: in vitro. To be noted: bovine, isolated trypsin from bovine pancreas, pH 8.6.
Experimental: Essentially salt-free trypsin from bovine pancreas, (T8802, 10000-15000 BAEE units/mg protein) was supplied by Sigma-Aldrich.
Each peptide was dissolved in a 0.1 M NH4HCO3 buffer (pH 6.5) to yield a final peptide concentration of 1 mg/ml. A trypsin solution was prepared by dissolving 1 mg of trypsin in 50 ml 0.1 M NH4HCO3 buffer (pH 8.2). For the stability determination, 250 μl freshly made trypsin solution and 250 μl peptide solution were incubated in 2 ml of 0.1 M NH4HCO3 buffer (pH 8.6) at 37° C. on a rocking table. Aliquots of 0.5 ml were sampled at different time intervals, diluted with 0.5 ml water:acetonitrile (60:40 v/v) containing 1% TFA and analysed by RP-HPLC as described above. Samples without trypsin addition taken at 0 h and after 20 h at 37° C. were used as negative controls. […] The plotted kinetic profiles were made on GraphPad Prism 4c.
The identity of the metabolites from the tryptic degradation was either determined by preparative trypsin degradation of the peptide, purification and structural determination by ESMS, or by chemical synthesis of authentic reference samples.
The subject of series [2] is MRSA. In words: Minimal inhibitory concentration. It counts as cell-based. The method, then: (§1) A further compound was prepared according to the methods of the invention and Minimal Inhibitory Concentration (MIC) values obtained against a range of bacteria. • H-Arg-Tbt-Arg-NH(CH2)2 (2-Br-phenyl) Saponification of Boc-Arg-Tbt-Arg-OMe
(§2) Minimal inhibitory concentration (mg/l),

Series [3] concerns E. coli. As to the kind of experiment: Minimal inhibitory concentration. It counts as cell-based. The method, then:
as §1, §2

Series [4] concerns S. aureus. As to the kind of experiment: Minimal inhibitory concentration. The format is cell-based. The method, then:
as §1, §2

In series [5] the test system is Str. pyogenes. As to the kind of experiment: Minimal inhibitory concentration. The format is cell-based. The method, then:
as §1, §2

The structures appear in SMILES notation. In brackets after ≈: the same amount, converted by molar mass. Peptide text beside a SMILES is read from it. * marks the point of attachment. NHPhenethyl = c1ccc(CCN*)cc1; NHBn = c1ccc(CN*)cc1

trypsin, sequence (P00760 24-246): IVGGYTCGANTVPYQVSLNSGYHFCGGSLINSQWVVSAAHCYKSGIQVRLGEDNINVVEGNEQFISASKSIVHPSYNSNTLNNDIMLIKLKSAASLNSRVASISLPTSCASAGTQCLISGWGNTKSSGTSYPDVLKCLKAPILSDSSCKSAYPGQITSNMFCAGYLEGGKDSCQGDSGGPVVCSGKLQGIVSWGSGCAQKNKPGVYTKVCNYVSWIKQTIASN

With `N=C(N)NCCC[C@H](NC(=O)[C@H](Cc1c[nH]c2ccccc12)NC(=O)[C@@H](N)CCCNC(=N)N)C(=O)NCCc1ccccc1` [F] (H-Arg-Trp-Arg-NHPhenethyl), the half-life at 0.1 mg/ml in series [1] is 7 h.

With `N=C(N)NCCC[C@H](NC(=O)[C@H](Cc1c[nH]c2ccccc12)NC(=O)[C@@H](N)CCCNC(=N)N)C(=O)NCc1ccccc1` [E] (H-Arg-Trp-Arg-NHBn), the half-life at 0.1 mg/ml in series [1] was 1 h.

`CC(C)(C)c1cc(C(C)(C)C)c2[nH]c(C(C)(C)C)c(C[C@H](NC(=O)[C@@H](N)CCCNC(=N)N)C(=O)N[C@@H](CCCNC(=N)N)C(=O)NCCc3ccccc3Br)c2c1` [—(CH2)2-(2-BrPh), H-Arg-Tbt-Arg-NH(CH2)2 (2-Br-phenyl)]: the Minimal inhibitory concentration in series [2] worked out at 3 µg/mL (≈ 3.46 µM); in series [3], 6 µg/mL (≈ 6.92 µM); in series [4], 3 µg/mL (≈ 3.46 µM); in series [5], 3 µg/mL (≈ 3.46 µM).

By half-life is commonly meant the time needed for the level to fall by half in the phase considered.
